These results are taken from article PMC5096949 (Toxicology letters, 2016).

For test [1], the target named is T1, Human Recombinant AADAC (arylacetamide deacetylase) (Homo sapiens, UniProt P22760).
T1 sequence (P22760 1-399): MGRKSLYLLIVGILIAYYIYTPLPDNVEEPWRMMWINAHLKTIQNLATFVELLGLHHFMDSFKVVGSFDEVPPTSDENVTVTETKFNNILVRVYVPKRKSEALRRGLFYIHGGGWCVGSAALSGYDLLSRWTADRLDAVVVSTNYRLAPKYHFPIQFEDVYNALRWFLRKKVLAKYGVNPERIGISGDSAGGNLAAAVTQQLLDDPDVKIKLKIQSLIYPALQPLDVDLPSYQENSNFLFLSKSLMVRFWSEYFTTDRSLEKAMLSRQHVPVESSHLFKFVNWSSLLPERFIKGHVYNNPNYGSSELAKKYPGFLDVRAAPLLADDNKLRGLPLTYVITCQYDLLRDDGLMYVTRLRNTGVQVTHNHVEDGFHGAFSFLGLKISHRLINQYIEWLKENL
Description: Esterase inhibition, fluorimetric assay with CMNA substrate. The class given is biochemical.

For test [2], the target named is T2, Rat Brain Microsomes (FAAH) (Rattus norvegicus, UniProt P97612).
T2 sequence (P97612 1-579): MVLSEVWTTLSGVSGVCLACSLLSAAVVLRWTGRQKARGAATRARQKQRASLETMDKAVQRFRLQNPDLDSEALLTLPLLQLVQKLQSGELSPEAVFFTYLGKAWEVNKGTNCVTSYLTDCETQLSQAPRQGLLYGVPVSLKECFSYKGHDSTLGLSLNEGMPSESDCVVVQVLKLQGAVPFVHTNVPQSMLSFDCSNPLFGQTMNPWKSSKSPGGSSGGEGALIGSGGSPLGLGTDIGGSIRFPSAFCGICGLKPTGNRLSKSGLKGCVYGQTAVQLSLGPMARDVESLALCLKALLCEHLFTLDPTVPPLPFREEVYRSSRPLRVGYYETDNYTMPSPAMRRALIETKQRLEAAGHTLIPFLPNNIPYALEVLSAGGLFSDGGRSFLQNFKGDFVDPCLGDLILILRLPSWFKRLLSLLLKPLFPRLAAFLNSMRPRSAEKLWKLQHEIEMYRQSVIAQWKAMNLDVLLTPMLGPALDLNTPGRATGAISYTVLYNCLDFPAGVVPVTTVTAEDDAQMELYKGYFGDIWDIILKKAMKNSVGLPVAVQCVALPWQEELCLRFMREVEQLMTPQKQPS
The test can be described thus: FAAH inhibition in brain microsomes, OMP hydrolysis.

For test [3], the target named is T3, Mouse Brain Microsomes (FAAH) (Mus musculus, UniProt O08914).
T3 sequence (O08914 1-579): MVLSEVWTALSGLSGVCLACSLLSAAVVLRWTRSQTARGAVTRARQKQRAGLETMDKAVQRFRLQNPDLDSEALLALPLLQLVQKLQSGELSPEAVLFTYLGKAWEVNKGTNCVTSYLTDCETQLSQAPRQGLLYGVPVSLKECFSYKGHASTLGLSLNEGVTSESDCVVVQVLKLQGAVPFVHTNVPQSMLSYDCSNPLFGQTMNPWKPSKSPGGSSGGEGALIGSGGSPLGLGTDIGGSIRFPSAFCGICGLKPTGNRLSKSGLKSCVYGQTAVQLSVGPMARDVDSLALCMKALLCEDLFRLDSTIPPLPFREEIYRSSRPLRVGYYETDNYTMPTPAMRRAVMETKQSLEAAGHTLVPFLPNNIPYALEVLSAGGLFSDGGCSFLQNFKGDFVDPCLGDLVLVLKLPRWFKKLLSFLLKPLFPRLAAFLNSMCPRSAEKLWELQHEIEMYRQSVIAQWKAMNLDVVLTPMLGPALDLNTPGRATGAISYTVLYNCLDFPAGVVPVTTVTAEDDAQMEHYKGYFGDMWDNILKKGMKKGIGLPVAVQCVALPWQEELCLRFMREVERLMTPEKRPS
The description is as above.

Test [4] has as its target T4, Human Recombinant hCE1 (carboxylesterase 1) (Homo sapiens, UniProt P23141).
T4 sequence (P23141 18-567): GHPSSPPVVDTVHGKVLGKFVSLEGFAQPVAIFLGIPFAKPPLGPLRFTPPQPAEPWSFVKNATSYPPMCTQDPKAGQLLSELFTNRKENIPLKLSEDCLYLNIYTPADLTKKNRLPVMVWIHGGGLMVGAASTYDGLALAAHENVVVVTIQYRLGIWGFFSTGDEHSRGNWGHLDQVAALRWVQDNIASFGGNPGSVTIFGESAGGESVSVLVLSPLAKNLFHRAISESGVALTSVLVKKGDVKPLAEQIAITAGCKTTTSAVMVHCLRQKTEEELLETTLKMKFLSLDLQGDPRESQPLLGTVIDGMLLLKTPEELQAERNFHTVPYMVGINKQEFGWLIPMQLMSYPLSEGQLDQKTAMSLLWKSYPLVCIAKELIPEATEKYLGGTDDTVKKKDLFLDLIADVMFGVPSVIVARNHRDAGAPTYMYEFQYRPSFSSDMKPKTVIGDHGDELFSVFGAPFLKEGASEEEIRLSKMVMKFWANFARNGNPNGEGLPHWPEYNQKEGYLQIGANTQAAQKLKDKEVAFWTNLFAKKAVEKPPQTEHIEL
The test can be described thus: Esterase inhibition, fluorimetric assay with CMNA substrate. The class given is biochemical.

The target of test [5] is T5, Human Recombinant FAAH (fatty acid amide hydrolase) (Homo sapiens, UniProt O00519).
T5 sequence (O00519 1-579): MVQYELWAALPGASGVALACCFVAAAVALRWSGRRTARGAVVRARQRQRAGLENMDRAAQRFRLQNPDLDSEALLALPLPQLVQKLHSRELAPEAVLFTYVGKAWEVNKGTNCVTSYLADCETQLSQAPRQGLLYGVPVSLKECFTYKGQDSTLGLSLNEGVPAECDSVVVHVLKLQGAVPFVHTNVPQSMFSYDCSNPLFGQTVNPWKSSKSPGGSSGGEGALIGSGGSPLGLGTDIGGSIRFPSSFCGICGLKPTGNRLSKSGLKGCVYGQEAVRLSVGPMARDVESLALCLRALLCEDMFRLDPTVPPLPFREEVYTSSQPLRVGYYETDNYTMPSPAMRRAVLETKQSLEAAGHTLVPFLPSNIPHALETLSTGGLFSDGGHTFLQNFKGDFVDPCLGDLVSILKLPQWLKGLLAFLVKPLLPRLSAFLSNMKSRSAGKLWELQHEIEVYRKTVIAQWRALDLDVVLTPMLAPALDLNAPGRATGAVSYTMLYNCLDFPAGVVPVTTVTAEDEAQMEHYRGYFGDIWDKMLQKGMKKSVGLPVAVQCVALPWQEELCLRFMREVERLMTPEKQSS
The test can be described thus: FAAH inhibition, fluorimetric assay with OMP substrate, recombinant enzyme. The class given is biochemical.

[6] abbreviates: as inhibitor concentration increases.

Where only a bound is given, the exact number is not on record here.

On to `O=C(OCc1ccccc1)c1ccc(O)cc1` [Benzylparaben, benzylparaben], for which the IC50 is > 10000 nM in test [1], 230 nM in test [2], 210 nM in test [3] and > 10000 nM in test [4]. In addition, in test [5], the “mechanism of FAAH inhibition” value is “mixed type mechanism”. Also, the Ki is 52 ± 14 nM in test [5] (Ki, linear mixed-type model of inhibition) and ≤ 1000 nM in test [5] (upper limit of relative Ki, at saturating substrate, mixed-type interaction). Besides, the “potency relative to URB597 (less potent)” value in test [5] (after a 5 min incubation) is 3 fold. The “change in KM app” value in test [5] (setting [6]) fell in the range of 18 to 98 µM. The “change in Vmax app” value in test [5] (setting [6]) is 5.5 RFU/s to 2.0 RFU/s. For the same compound, the α value in test [5] (linear mixed-type model of inhibition) is reported as 9.7 ± 6.6. For the same compound, the “time-dependence of FAAH inhibition” value in test [5] (pre-incubation of enzyme with inhibitor up to 1 h) is listed as “independent on incubation time”.
